Experimental data reported in patent US6624151B1, “Compounds selectively inhibiting gamma 9 delta 2 T lymphocytes” (Institut National de la Sante et de la Recherche Medicale, priority 1999, dated 2003).
pIC50: −log10 of the molar value. Like-named read-outs stand apart in the source and are kept apart here.

Experiments:
Tγ9δ2 lymphocytes [1] = assay: Induced cytotoxicity test, Tγ9δ2 lymphocyte clone stimulated by antigen BrHPP
Tγ8δ3 lymphocytes = settings: clone stimulated by a conventional antigen; increasing concentrations; FIG. 8
Protocol: A test of induced cytotoxicity is carried out as in Example 12, but with a clone of Tγ8δ3 lymphocyte stimulated by a conventional antigen of these lymphocytes (black circles), and in the presence of the compound according to the invention BrHPCP in increasing concentrations in the culture medium (black squares in FIG. 8).

Tγ9δ2 lymphocytes [2] = settings: FIG. 7 lower
Protocol: The two left graphs are obtained by stimulating the Tγ9δ2 lymphocytes as in Example 12, by adding first 9 nM of BrHPP antigen into the culture medium, then by adding increasing concentrations (on the abscissa) of the compound according to the invention, BrHPCP. The two right hand graphs are obtained by incorporating first of all 60 μM of the compound according to the invention, BrHPCP, into the culture medium in contact with the Tγ9δ2 lymphocytes, then by adding increasing concentrations (on the abscissa) of the antigen compound stimulating BrHPP. […] The upper graphs give the percentage of residual response in the cultures (induced cytotoxicity test). The lower graphs give the concentration of TNF salted out in pg/ml.

[3] = read-out: bioactivity (selective inhibition of Tγ9δ2 lymphocytes), concentration of BrHPP equal to 150 μM (so in the source)
[4] = read-out: IC50 concentration leading to the inhibition of 50% of the reference response, lymphocytes stimulated by 80 nM BrHPP, induced cytotoxicity test

Compound	pIC50 (Tγ9δ2 lymphocytes [1]; [4])	also measured
CC(O)(CBr)CCOP(=O)(O)C(F)P(=O)(O)O (stereo not shown) [BrHPCHFP, 3-(bromomethyl)-3-butanol-1-yl-monofluoromethylenediphosphonate]		pIC50 (Tγ9δ2 lymphocytes [1]; [3]): 4.52
CC(O)(CBr)CCOP(=O)(O)C(F)(F)P(=O)(O)O (stereo not shown) [BrH PCF2P, 3-(Bromomethyl)-3-butanol-1-yl-difluoromethylenediphosphonate]	3.82	
CC1(CCOP(=O)(O)C(F)P(=O)(O)O)CO1 (stereo not shown) [Epox PCHFP, 3,4-epoxy-3-methyl-1-butyl-monofluoromethylenediphosphonate]		pIC50 (Tγ9δ2 lymphocytes [1]; [3]): 4.30
CC(O)(CBr)CCOP(=O)(O)CP(=O)(O)O (stereo not shown) [BrH PCP, 3-(Bromomethyl)-3-butanol-1-yl-methylenediphosphonate]	4.82	inhibition of Tγ8δ3 lymphocytes (Tγ8δ3 lymphocytes): does not inhibit the Tγ8δ3 lymphocytes; inhibition of stimulation by BrHPP (residual response, induced cytotoxicity) (Tγ9δ2 lymphocytes [1]; 9 nM BrHPP first, then increasing BrHPCP, FIG. 7 upper): inhibits the stimulation by BrHPP; reversibility of inhibition (induced cytotoxicity) (Tγ9δ2 lymphocytes [1]; 60 μM BrHPCP first, then increasing BrHPP, FIG. 7 upper): reversible; inhibition of stimulation by BrHPP (TNF salted out) (Tγ9δ2 lymphocytes [2]; 9 nM BrHPP first, then increasing BrHPCP): inhibits the stimulation by BrHPP; reversibility of inhibition (TNF salted out) (Tγ9δ2 lymphocytes [2]; 60 μM BrHPCP first, then increasing BrHPP): reversible
C=C(C)CCOP(=O)(O)C(F)(F)P(=O)(O)O [I PCF2P, 3-Methyl-3-butene-1-yl-difluoromethylenediphosphonate]	3.00	
CC(O)(CI)CCOP(=O)(O)CP(=O)(O)O (stereo not shown) [IH PCP, 3-(Iodomethyl)-3-butanol-1-yl-methylenediphosphonate]	4.82	
CC1(CCOP(=O)(O)CP(=O)(O)O)CO1 (stereo not shown) [Epox PCP, 3,4-Epoxy-3-methyl-1-butyl-methylenediphosphonate]	4.52	pIC50 (Tγ9δ2 lymphocytes [1]; read-out: IC50 concentration, stated in text (formulation example), IC50 defined with BrHPP at 80 nM): 4.82
CC(C)(O)CCOP(=O)(O)CP(=O)(O)O [tButOH PCP, 3-Methyl-3-butanol-1-yl-methylenediphosphonate]	3.00	
3-Methyl-3-butene-1-yl-methylenediphosphonate [I PCP]	3.15	
CC1(CCOP(=O)(O)C(F)(F)P(=O)(O)O)CO1 (stereo not shown) [Epox PCF2P, 3,4-Epoxy-3-methyl-1-butyl-difluoromethylenediphosphonate]	3.52	
